Experiments:
Leukotriene B4 receptor = Leukotriene B4 receptor (Homo sapiens, UniProt Q9NPC1+Q15722); assay: Inhibition of LTB4-induced CD11b/CD18 integrin up-regulation in human neutrophils; type: functional
Cavia porcellus = assay: Compound was tested for antagonizing effect of LTB4-induced gas trapping in the guinea pig when administered intravenously; type: functional; settings: iv

IC50 (Leukotriene B4 receptor): 0.195 µM
Compound: CCCc1c(OCCCOc2cc(O)c(OCC)cc2CC)ccc2c1OC(C(=O)O)CC2 (configuration not stated)
ED50 (Cavia porcellus): 0.012 mg/kg
